{"source": "paper PMC7544826", "about": "(Communications Biology, 2020)", "origin": "cited, not measured here", "tested_on": "Notum", "set-up": "method as in PMID 31876313", "conditions": "read-out: IC50, Notum inhibition (reported potency); cited from earlier work", "data": [{"smiles": "COc1ccc2[nH]cc(CCNC(C)=O)c2c1", "note": "[melatonin]", "values": [{"measurement": "IC50", "result": 75, "unit": "µM"}]}]}
